Data as given in PubChem BioAssay (NCI).
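96-well plates; 48 h exposure; 5 concentrations. Endpoints by linear interpolation between flanking doses. Not reached: highest tested concentration assigned. Here, GI50 denotes the concentration required for 50% inhibition of growth. TGI denotes the concentration required for complete inhibition of growth.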

What was measured:
Assay in all cases: NCI-60 cell line screen, 48 h
786-0 renal = system: 786-0 renal
A498 renal = system: A498 renal
A549 NSCLC = system: A549 NSCLC
ACHN renal = system: ACHN renal
BT-549 breast = system: BT-549 breast
CAKI-1 renal = system: CAKI-1 renal
CCRF-CEM leukemia = system: CCRF-CEM leukemia
COLO 205 colon = system: COLO 205 colon
DU-145 prostate = system: DU-145 prostate
EKVX NSCLC = system: EKVX NSCLC
HCC-2998 colon = system: HCC-2998 colon
HCT-116 colon = system: HCT-116 colon
HCT-15 colon = system: HCT-15 colon
HL-60(TB) leukemia = system: HL-60(TB) leukemia
HOP-62 NSCLC = system: HOP-62 NSCLC
HOP-92 NSCLC = system: HOP-92 NSCLC
HS 578T breast = system: HS 578T breast
HT29 colon = system: HT29 colon
IGROV1 ovarian = system: IGROV1 ovarian
K-562 leukemia = system: K-562 leukemia
KM12 colon = system: KM12 colon
LOX IMVI melanoma = system: LOX IMVI melanoma
M14 melanoma = system: M14 melanoma
MALME-3M melanoma = system: MALME-3M melanoma
MCF7 breast = system: MCF7 breast
MDA-MB-231 breast = system: MDA-MB-231 breast
MDA-MB-435 = system: MDA-MB-435
MOLT-4 leukemia = system: MOLT-4 leukemia
NCI-H226 lung = system: NCI-H226 lung
NCI-H23 lung = system: NCI-H23 lung
NCI-H460 lung = system: NCI-H460 lung
NCI-H522 lung = system: NCI-H522 lung
NCI/ADR-RES ovarian = system: NCI/ADR-RES ovarian
OVCAR-3 ovarian = system: OVCAR-3 ovarian
OVCAR-4 ovarian = system: OVCAR-4 ovarian
OVCAR-5 ovarian = system: OVCAR-5 ovarian
OVCAR-8 ovarian = system: OVCAR-8 ovarian
PC-3 prostate = system: PC-3 prostate
RPMI-8226 leukemia = system: RPMI-8226 leukemia
RXF 393 renal = system: RXF 393 renal
SF-268 CNS = system: SF-268 CNS
SF-295 CNS = system: SF-295 CNS
SF-539 CNS = system: SF-539 CNS
SK-MEL-2 melanoma = system: SK-MEL-2 melanoma
SK-MEL-28 melanoma = system: SK-MEL-28 melanoma
SK-MEL-5 melanoma = system: SK-MEL-5 melanoma
SK-OV-3 ovarian = system: SK-OV-3 ovarian
SN12C renal = system: SN12C renal
SNB-19 CNS = system: SNB-19 CNS
SNB-75 CNS = system: SNB-75 CNS
SR leukemia = system: SR leukemia
SW-620 colon = system: SW-620 colon
T-47D breast = system: T-47D breast
TK-10 renal = system: TK-10 renal
U251 CNS = system: U251 CNS
UACC-257 melanoma = system: UACC-257 melanoma
UACC-62 melanoma = system: UACC-62 melanoma
UO-31 renal = system: UO-31 renal

Cc1ccc2c(n1)C(=O)C(Cl)=C(Nc1ccc(C#N)cc1)C2=O
GI50 (786-0 renal): 1.74 µM | TGI (786-0 renal): 3.24 µM | GI50 (A498 renal): 16.3 µM | TGI (A498 renal): > 100 µM | GI50 (A549 NSCLC): 35.6 µM | TGI (A549 NSCLC): > 100 µM | GI50 (ACHN renal): 1.81 µM | TGI (ACHN renal): 3.3 µM | GI50 (BT-549 breast): 2.8 µM | TGI (BT-549 breast): 12 µM | GI50 (CAKI-1 renal): 1.7 µM | TGI (CAKI-1 renal): 3.31 µM | GI50 (CCRF-CEM leukemia): 0.358 µM | TGI (CCRF-CEM leukemia): 2.2 µM | GI50 (COLO 205 colon): 1.66 µM | TGI (COLO 205 colon): 3.51 µM | GI50 (DU-145 prostate): 2.13 µM | TGI (DU-145 prostate): 4.48 µM | GI50 (EKVX NSCLC): 2.19 µM | TGI (EKVX NSCLC): 5.59 µM | GI50 (HCC-2998 colon): 3.83 µM | TGI (HCC-2998 colon): 16.1 µM | GI50 (HCT-116 colon): 1.83 µM | TGI (HCT-116 colon): 3.78 µM | GI50 (HCT-15 colon): 1.74 µM | TGI (HCT-15 colon): 3.66 µM | GI50 (HL-60(TB) leukemia): 1.08 µM | TGI (HL-60(TB) leukemia): 3.05 µM | GI50 (HOP-62 NSCLC): 17.9 µM | TGI (HOP-62 NSCLC): 50.7 µM | GI50 (HOP-92 NSCLC): 1.71 µM | TGI (HOP-92 NSCLC): 3.41 µM | GI50 (HS 578T breast): 14.6 µM | TGI (HS 578T breast): 56.1 µM | GI50 (HT29 colon): 3.06 µM | TGI (HT29 colon): 10.6 µM | GI50 (IGROV1 ovarian): 10.7 µM | TGI (IGROV1 ovarian): 24.7 µM | GI50 (K-562 leukemia): 0.351 µM | TGI (K-562 leukemia): 1.87 µM | GI50 (KM12 colon): 19.9 µM | TGI (KM12 colon): > 100 µM | GI50 (LOX IMVI melanoma): 1.53 µM | TGI (LOX IMVI melanoma): 3.46 µM | GI50 (M14 melanoma): 6.12 µM | TGI (M14 melanoma): 21.9 µM | GI50 (MALME-3M melanoma): 1.74 µM | TGI (MALME-3M melanoma): 3.36 µM | GI50 (MCF7 breast): 1.9 µM | TGI (MCF7 breast): 4.62 µM | GI50 (MDA-MB-231 breast): 5.59 µM | TGI (MDA-MB-231 breast): 25.8 µM | GI50 (MDA-MB-435): 6.99 µM | TGI (MDA-MB-435): 22.7 µM | GI50 (MOLT-4 leukemia): 0.47 µM | TGI (MOLT-4 leukemia): 2.56 µM | GI50 (NCI-H226 lung): 4.36 µM | TGI (NCI-H226 lung): 17.6 µM | GI50 (NCI-H23 lung): 1.84 µM | TGI (NCI-H23 lung): 4.58 µM | GI50 (NCI-H460 lung): 30.2 µM | TGI (NCI-H460 lung): > 100 µM | GI50 (NCI-H522 lung): 1.75 µM | TGI (NCI-H522 lung): 3.75 µM | GI50 (NCI/ADR-RES ovarian): 3.55 µM | TGI (NCI/ADR-RES ovarian): 17.7 µM | GI50 (OVCAR-3 ovarian): 1.84 µM | TGI (OVCAR-3 ovarian): 3.51 µM | GI50 (OVCAR-4 ovarian): 1.59 µM | TGI (OVCAR-4 ovarian): 3.08 µM | GI50 (OVCAR-5 ovarian): 17.7 µM | TGI (OVCAR-5 ovarian): 34.8 µM | GI50 (OVCAR-8 ovarian): 10.1 µM | TGI (OVCAR-8 ovarian): 28.2 µM | GI50 (PC-3 prostate): 10 µM | TGI (PC-3 prostate): 25.1 µM | GI50 (RPMI-8226 leukemia): 2.19 µM | TGI (RPMI-8226 leukemia): 5.74 µM | GI50 (RXF 393 renal): 1.45 µM | TGI (RXF 393 renal): 2.79 µM | GI50 (SF-268 CNS): 8.36 µM | TGI (SF-268 CNS): 25.6 µM | GI50 (SF-295 CNS): 17.6 µM | TGI (SF-295 CNS): 39.2 µM | GI50 (SF-539 CNS): 10.2 µM | TGI (SF-539 CNS): 23 µM | GI50 (SK-MEL-2 melanoma): 11.6 µM | TGI (SK-MEL-2 melanoma): 24.6 µM | GI50 (SK-MEL-28 melanoma): 2.46 µM | TGI (SK-MEL-28 melanoma): 5.74 µM | GI50 (SK-MEL-5 melanoma): 4.75 µM | TGI (SK-MEL-5 melanoma): 17.3 µM | GI50 (SK-OV-3 ovarian): 11.7 µM | TGI (SK-OV-3 ovarian): 27.7 µM | GI50 (SN12C renal): 5.68 µM | TGI (SN12C renal): 25.4 µM | GI50 (SNB-19 CNS): 15.7 µM | TGI (SNB-19 CNS): 39.8 µM | GI50 (SNB-75 CNS): 6.8 µM | TGI (SNB-75 CNS): 34.5 µM | GI50 (SR leukemia): 0.375 µM | TGI (SR leukemia): 2.25 µM | GI50 (SW-620 colon): 1.76 µM | TGI (SW-620 colon): 3.87 µM | GI50 (T-47D breast): 1.87 µM | TGI (T-47D breast): 4.79 µM | GI50 (TK-10 renal): 1.83 µM | TGI (TK-10 renal): 3.27 µM | GI50 (U251 CNS): 13 µM | TGI (U251 CNS): 28.7 µM | GI50 (UACC-257 melanoma): 1.64 µM | TGI (UACC-257 melanoma): 3.17 µM | GI50 (UACC-62 melanoma): 10.1 µM | TGI (UACC-62 melanoma): 25.9 µM | GI50 (UO-31 renal): 1.54 µM | TGI (UO-31 renal): 2.97 µM
